According to article PMC10508484, “Development and application of a PBPK modeling strategy to support antimalarial drug development” (CPT: Pharmacometrics & Systems Pharmacology, 2023):
Values joined by “and” are separate entries in the source; they are usually repeats but may differ in a detail not shown here. Equal entries are not always repeated. Where two headings read alike, the source gives them in different places. Blank lines part the entries; values can stand above or below the compound they belong to.

Tests used:
[1] = PBPK absorption inputs (fa, ka, tlag, Qgut, Fg); design: species or system human; settings: for fa: derived from ascending dose studies, McCarthy et al., 2017
Source text: Initial models were built based on available physicochemical and in vitro data to give a ‘bottom-up’ prediction. Areas of uncertainty were highlighted, and the potential impact of uncertainty associated with such parameters was investigated using sensitivity analysis. Available clinical PK data were then used to evaluate and, if required, refine the initial ‘bottom-up’ model. Care was taken to split data into training and test sets wherever possible. The model verification strategy differed across compounds based on availability of different types of clinical data. […] Clinical studies used for drug model development and verification are reported in Table S2 (PK) and Table S3 (DDIs).

CYP2C8 [2] = target: T1, CYP2C8 (Homo sapiens, UniProt P10632); test: Metabolism by CYP2C8 (CLint, fm)
T1 sequence (P10632 1-490): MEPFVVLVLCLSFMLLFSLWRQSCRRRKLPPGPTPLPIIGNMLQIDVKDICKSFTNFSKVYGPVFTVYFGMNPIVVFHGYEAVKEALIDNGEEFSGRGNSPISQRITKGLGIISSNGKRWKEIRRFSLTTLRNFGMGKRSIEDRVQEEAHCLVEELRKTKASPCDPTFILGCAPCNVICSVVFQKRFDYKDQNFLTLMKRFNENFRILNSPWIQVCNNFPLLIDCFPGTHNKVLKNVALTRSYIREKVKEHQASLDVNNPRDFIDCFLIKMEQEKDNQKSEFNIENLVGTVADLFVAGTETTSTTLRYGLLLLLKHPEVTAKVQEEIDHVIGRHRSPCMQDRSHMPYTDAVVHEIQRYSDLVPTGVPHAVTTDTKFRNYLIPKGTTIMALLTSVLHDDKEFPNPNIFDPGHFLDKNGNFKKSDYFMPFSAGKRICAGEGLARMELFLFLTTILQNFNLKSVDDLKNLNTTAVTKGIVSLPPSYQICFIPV
Source text: (§1) In nearly all cases the fraction of systemic elimination metabolised by a given enzyme (fm) determined in vitro was unavailable in the literature.

Caco-2 cells = settings: calibrated against propranolol; plasma as medium for atovaquone and piperaquine; ref Charman et al., 2020 1; cited from earlier work
[3] = Blood to plasma ratio (B:P); settings: PBPK input; unpublished (in-house) data
CYP2C19 = CYP2C19 (Homo sapiens, UniProt P33261); test: Metabolism by CYP2C19 (CLint, fm); assay type: in vitro ADME; settings: for fmCYP2C19: fraction metabolised used in the PBPK model (proguanil: total, all routes)
Source text: as §1

CYP2C8 [4] = target: T1, CYP2C8; test: biochemical
[5] = Fraction unbound in plasma (fu), main binding protein; settings: PBPK input; unpublished (in-house) data
[6] = PBPK input; ref Charman et al., 2020 1; cited from earlier work
[7] = Fraction unbound in human liver microsomes (fumic); settings: method of Austin et al., 2002
[8] = cited from earlier work
CYP2C8 [9] = target: T1, CYP2C8
[10] = Hepatic / HLM intrinsic clearance, enzyme not defined; settings: human, liver microsomes
CYP3A4 [11] = target: T2, CYP3A4 (Homo sapiens, UniProt P08684); test: in vitro
[12] = piperaquine 960 mg SD + clarithromycin 500 mg SD; ref Eurartesim - EMA Website, 12; cited from earlier work
CYP3A4 [13] = target: T2, CYP3A4; test: CYP3A4 inhibition (direct and time-dependent); settings: Derived from IC50 shift data (single time point), unpublished data
[14] = In vitro flags for victim and perpetrator properties conferring DDI liability; assay type: in vitro ADME, human; settings: in vitro flag, mainly based on in vitro determinations
[15] = measured (0.4 mg/mL protein where stated); ref Charman et al., 2020 1; cited from earlier work
CYP2C9 = test: Metabolism by CYP2C9 (CLint, fm); assay type: in vitro ADME, human
Source text: as §1

CYP3A4 [16] = target: T2, CYP3A4; settings: cited from earlier work
CYP3A4 [17] = target: T2, CYP3A4
Source text: as §1

in vitro = settings: human, plasma
OCT1 = system: OCT1; design: method as in Ito et al., 2010 68, Panfen et al., 2019 69; settings: average; ref Ito et al., 2010 68, Panfen et al., 2019 69; cited from earlier work
MATEs = target: MATEs; design: method as in Miyake et al., 2021 71; settings: average of MATE1 and MATE2-K; ref Miyake et al., 2021 71; cited from earlier work
[18] = PBPK input; ref Charman et al., 2020 1; cited from earlier work; remark: listed apart in the source
[19] = PBPK input; ref amodiaquine, DEAQ Winstanley et al., 1987 9; atovaquone Rolan et al., 1997 14; azithromycin Lalak et al., 1993 23; carboxyprimaquine Mihaly et al., 1985 26; chloroquine Walker et al., 1987 29; DHA EMA Website, 44; doxycycline Raghuram et al., 1982 48, Nguyen et al., 1989 49; mefloquine Schwartz et al., 1982 57; primaquine White, 1985 62; proguanil Jeppesen et al., 1997 34; pyrimeth; cited from earlier work
[20] = ref Charman et al., 2020 1; cited from earlier work
OCT2 = settings: read-out: OCT2 Ki; ref Kusuhara et al., 2011 70; cited from earlier work
[21] = fraction metabolised used in the PBPK model
[22] = Relative fa (in vivo fasted AUC / high fat fed AUC), EMA Website
[23] = HLM CLint 31.6 µL/min/mg with 20% split equally between CYP2C9 and CYP2C19

T2 sequence (P08684 whole entry): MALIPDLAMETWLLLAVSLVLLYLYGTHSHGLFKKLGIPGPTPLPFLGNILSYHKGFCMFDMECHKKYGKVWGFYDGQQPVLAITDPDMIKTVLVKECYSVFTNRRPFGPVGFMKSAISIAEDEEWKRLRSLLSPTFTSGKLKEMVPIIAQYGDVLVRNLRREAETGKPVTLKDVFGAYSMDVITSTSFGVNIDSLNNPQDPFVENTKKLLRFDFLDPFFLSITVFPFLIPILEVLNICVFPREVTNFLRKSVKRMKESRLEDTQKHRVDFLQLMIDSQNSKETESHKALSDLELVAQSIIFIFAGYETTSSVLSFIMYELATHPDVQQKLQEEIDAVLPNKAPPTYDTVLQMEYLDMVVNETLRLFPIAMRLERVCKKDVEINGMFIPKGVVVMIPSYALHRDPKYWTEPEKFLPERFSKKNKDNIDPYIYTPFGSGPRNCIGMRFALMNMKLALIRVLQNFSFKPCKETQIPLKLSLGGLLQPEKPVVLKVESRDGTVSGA
Chain of CYP2C19 (P33261 whole entry): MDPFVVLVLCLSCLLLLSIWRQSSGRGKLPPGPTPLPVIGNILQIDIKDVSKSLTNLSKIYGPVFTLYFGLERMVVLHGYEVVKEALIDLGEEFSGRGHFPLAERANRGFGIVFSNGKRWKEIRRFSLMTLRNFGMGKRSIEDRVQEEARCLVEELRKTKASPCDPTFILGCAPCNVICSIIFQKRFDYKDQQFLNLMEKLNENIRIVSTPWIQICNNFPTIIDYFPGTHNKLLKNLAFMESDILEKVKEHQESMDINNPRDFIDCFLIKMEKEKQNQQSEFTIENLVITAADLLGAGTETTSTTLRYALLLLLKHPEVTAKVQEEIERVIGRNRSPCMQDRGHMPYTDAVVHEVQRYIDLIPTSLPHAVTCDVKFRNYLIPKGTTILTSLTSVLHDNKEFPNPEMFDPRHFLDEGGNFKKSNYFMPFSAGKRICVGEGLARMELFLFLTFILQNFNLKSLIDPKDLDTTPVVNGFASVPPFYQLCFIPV

fa ([1]; doses 400 mg and above): 0.7
fa ([1]; doses 25 - 250 mg): 1
CLint CYP2C8 (CYP2C8 [2]; Unpublished MMV in house data): 2.384 µL/min/pmol
fmCYP2C8 (CYP2C8 [2]; [21]): 70% and ~ 70%
B:P [3]: 0.70
CLint CYP2C19 (CYP2C19; Unpublished MMV in house data): 1.751 µL/min/pmol
fmCYP2C19 (CYP2C19): 30% and ~ 30%
Ki (CYP2C8 [4]): 3.1 µM and 1.18 µM
fu [5]: 0.001
fumic ([7]; extrapolated from value measured at 0.4 mg/mL to 0.1 mg/mL): 0.61
fumic ([7]; for CYP2C8 Ki, extrapolated from 0.4mg/mL to 0.2 mg/mL): 0.44
SMILES: Cc1cc(Nc2ccc(S(F)(F)(F)(F)F)cc2)n2nc(C(C)(F)F)nc2n1 [DSM265]
Caco-2 (Papp A-B) (Caco-2 cells): 61 10-6 cm/s
Log P [6]: 4.03
AUC Obs ([8]; DSM265 400 mg SD, 0-inf, ref McCarthy et al., 2017 46): 1210 µg·h/mL
Cmax Obs ([8]; DSM265 400 mg SD, ref McCarthy et al., 2017 46): 11500 ng/mL
AUC Obs ([8]; DSM265 600 mg SD, 0-inf, ref McCarthy et al., 2017 46): 2140 µg·h/mL
Cmax Obs ([8]; DSM265 600 mg SD, ref McCarthy et al., 2017 46): 15500 ng/mL
AUC Obs ([8]; DSM265 800 mg SD, 0-inf, ref McCarthy et al., 2017 46): 2220 µg·h/mL
Cmax Obs ([8]; DSM265 800 mg SD, ref McCarthy et al., 2017 46): 19100 ng/mL
AUC Obs ([8]; DSM265 1200 mg SD, 0-inf, ref McCarthy et al., 2017 46): 4720 µg·h/mL
Cmax Obs ([8]; DSM265 1200 mg SD, ref McCarthy et al., 2017 46): 34800 ng/mL

Ki (CYP2C8 [9]): 4.46 µM
SMILES: CC(F)(F)c1nc2nc(CO)cc(Nc3ccc(S(F)(F)(F)(F)F)cc3)n2n1 [DSM450]
AUC Obs ([8]; in vivo, 400 mg): 271 µg·h/mL
Cmax Obs ([8]; in vivo, 400 mg): 1070 ng/mL
AUC Obs ([8]; in vivo, 600 mg): 477 µg·h/mL
Cmax Obs ([8]; in vivo, 600 mg): 1380 ng/mL
AUC Obs ([8]; in vivo, 800 mg): 454 µg·h/mL
Cmax Obs ([8]; in vivo, 800 mg): 1920 ng/mL
AUC Obs ([8]; in vivo, 1200 mg): 1170 µg·h/mL
Cmax Obs ([8]; in vivo, 1200 mg): 3070 ng/mL

microsomal CLint [10]: 31.6 µL/min/mg
fa - 960 mg fasted [1, 22]: 0.4
fa - 1280 mg fasted [1, 22]: 0.33
fa - 960 mg fed ([1]; Relative fa, EMA Website): 1
fa - 1280 mg fed ([1]; Relative fa, EMA Website): 1
kinact (CYP3A4 [11]): 0.000347 s⁻¹
B:P [3]: 0.9
CLint CYP2C19 (CYP2C19; [23]): 3.16 µL/min/pmol
fmCYP2C19 (CYP2C19): 10%
CYP3A4 KI (CYP3A4 [13]): 0.12 µM
Risk as a perpetrator [14]: CYP3A4 time‐dependent inhibitor
Risk as a victim [14]: Substrate of CYP3A4, CYP2C9 and CYP2C19
CLint CYP2C9 (CYP2C9; [23]): 3.16 µL/min/pmol
fmCYP2C9 (CYP2C9; [21]): 10%
fmCYP3A4 (CYP3A4 [17]): 80%
CLint CYP3A4 (CYP3A4 [17]; microsomes): 25.3 µL/min/pmol
fraction unbound (in vitro): 0.006
SMILES: Clc1ccc2c(N3CCN(CCCN4CCN(c5ccnc6cc(Cl)ccc56)CC4)CC3)ccnc2c1 [Piperaquine, piperaquine]
Caco-2 (Papp A-B) (Caco-2 cells): 233 10-6 cm/s
AUC ratio Obs [12]: ≤ 2 fold
Cmax ratio Obs [12]: ≤ 2 fold
Log P [6]: 5.27
fumic [15]: 0.013
Ki (CYP3A4 [16]): 3 µM
AUC Obs ([8]; 960 mg QD (fasted, Day 3), 0-72 h, ref Eurartesim S06, Females <75 kg): 5.38 µg·h/mL
AUC Obs ([8]; 960 mg QD (fasted, Day 3), 0-72 h, ref Eurartesim S06, Males <75 kg): 3.93 µg·h/mL
Cmax Obs ([8]; 960 mg QD (fasted, Day 3), ref Eurartesim S06, Females <75 kg): 505 ng/mL
Cmax Obs ([8]; 960 mg QD (fasted, Day 3), ref Eurartesim S06, Males <75 kg): 280 ng/mL
AUC Obs ([8]; 960 mg QD (fed, Day 3), 0-72 h, ref Eurartesim S06, Females <75 kg): 12.5 µg·h/mL
AUC Obs ([8]; 960 mg QD (fed, Day 3), 0-72 h, ref Eurartesim S06, Males <75 kg): 10.7 µg·h/mL
Cmax Obs ([8]; 960 mg QD (fed, Day 3), ref Eurartesim S06, Females <75 kg): 1270 ng/mL
Cmax Obs ([8]; 960 mg QD (fed, Day 3), ref Eurartesim S06, Males <75 kg): 1120 ng/mL
AUC Obs ([8]; 1280 mg QD (fasted), 0-72 h, ref Eurartesim S06, Males ≥75 kg): 3.93 µg·h/mL
Cmax Obs ([8]; 1280 mg QD (fasted), ref Eurartesim S06, Males ≥75 kg): 280 ng/mL
AUC Obs ([8]; 1280 mg QD (fed), 0-72 h, ref Eurartesim S06, Males ≥75 kg EMA Website, 33): 10.7 µg·h/mL
Cmax Obs ([8]; 1280 mg QD (fed), ref Eurartesim S06, Males ≥75 kg EMA Website, 33): 1120 ng/mL
AUC Obs ([8]; 1280 mg SD tetraphosphate salt, 0-72 h, ref EMA Website, 33): 3.01 µg·h/mL
Cmax Obs ([8]; 1280 mg SD tetraphosphate salt, ref EMA Website, 33): 190 ng/mL

SMILES: CCc1nc(N)nc(N)c1-c1ccc(Cl)cc1 [Pyrimethamine, pyrimethamine]
microsomal CLint [10]: 1.8 µL/min/mg
Ki (OCT1): 2.3 µM
Caco-2 (Papp A-B) (Caco-2 cells): 59.8 10-6 cm/s
Ki (MATEs): 0.124 µM
fu [18]: 0.095
CL renal [19]: 0.0989 L/h
pKa(s) [20]: 6.86
Risk as a perpetrator [14]: OCT2 and MATE inhibitor
Ki (OCT2): 10 µM
Cmax Obs ([8]; in vivo, 100 mg): 771 ng/mL
